Measured values reported in patent US20260209260A1, “VECTORIZED NHC IRIDIUM(III) COMPLEXES AND USE THEREOF IN PHOTODYNAMIC THERAPY AND/OR DIAGNOSTIC” (CENTRE NATIONAL DE LA RECHERCHE SCIENTIFIQUE, priority 2022, published 2026).
Read-outs that look alike come from different tables or passages of the source.

Assays:
[1] = Singlet oxygen (1O2) production, ABDA indicator, blue LED 458 nm; settings: for depletion of the ABDA absorbance at 380 nm (1O2 production): 4.5 mWcm^−2, 5-45 min, PBS pH 7.4; for consumption of ABDA (1O2 production): 4.5 mWcm^−2
Procedure: The detection of […] generation of iridium complexes was measured with 9,10-anthracenediyl-bis(methylene)dimalonic acid (ABDA) as an ^1O2 indicator and Ru(bpy)3Cl2 as a standard according to a modified reported method. Experiments were conducted using ABDA (50 μM) in phosphate buffered solution (PBS, pH 7.4), the respective iridium complex, i.e. (I-e), (I-g), (I-h), (I-j), (II-e), (II-g), (II-h), (II-j), (III-i), (III-j), (III-k), (III-h), (IV-i), (IV-j), (IV-k), (IV-h) and Ru(bpy)3Cl2 (5 μM) in a mixture of H2O/CH3CN (50/50) with a ratio ABDA/complex of […] and a final volume of 3 mL. ABDA oxidation was monitored by UV-vis spectrophotometry. The samples were irradiated with a blue custom-made LED plate (458 nm, 4.5 mWcm^−2). During irradiation UV-vis absorption spectra were recorded at 5, 10, 15, 20, 30 and 45 min. The ^1O2 generation was followed by monitoring the absorption spectral change at 380 nm of ABDA versus time.

[2] = test system: DU-145 prostate cancer cells (PSMA-negative); experiment: Cell viability assay (MTT), dark and blue light; type: cell-based, Human; settings: for Photosensitizing index (PI): DU145, dark vs blue light; for SI (vs MC3T3) DU145 Blue / SI (vs NIH-3T3) DU145 Blue: blue light 458 nm
Outline: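 Two parallel arms: continuous 72 h dark exposure, or 8 h preincubation followed by 10 min blue light at 458 nm (9.6 W LEDs) and further dark incubation to 72 h. Final DMSO 0.1% (v/v); MTT formazan read at 570 nm, triplicate runs repeated at least three times.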

[3] = test system: PSMA-positive cells (C4-2b and 22Rv1); experiment: Cell viability assay (MTT), summary over PSMA-positive cancer cells; type: cell-based, Human; settings: blue light 458 nm; read-out: GI50 mean over PSMA-positive cancer cells, irradiated
Procedure: (§1) Cells were grown in humidified incubators at 37° C. in 5% CO2. Murine MC3T3 osteoblast and NIH-3T3 fibroblast cells-used as non-tumor cell models-were cultured in a-MEM medium and DMEM medium supplemented with 10% fetal bovine serum (FBS) and 1% Penicillin/Streptomycin (P/S) antibiotics, respectively. Human T24 bladder, MGHU3 bladder, Scaber bladder, A549 lung, MCF7 breast, MiaPaCa2 pancreas cancer cells were cultured in DMEM medium supplemented with 10% FBS and 1% P/S antibiotics. Human ASPC-1 pancreas, PC-3 prostate, DU-145 prostate, C4-2B prostate and 22rV1 prostate cancer cells were cultured in RPMI medium supplemented with 10% FBS and 1% P/S antibiotics. Human Hela cervix and HepG2 liver cancer cells were cultured EMEM medium supplemented with 10% FBS and 1% P/S antibiotics.
(§2) MTT reagent (3-(4,5-dimethylthiazol-2-yl)-2,5-diphenyltetrazolium bromide) was used to determine cell death as originally described by Mosmann. […] The concentration of the complexes was calculated based on the elemental composition of the complexes determined by the elemental analyses. […] After solubilization with 500 μL of DMSO, formazan was quantified spectrophotometrically with a microplate reader at 570 nm absorbance (ClarioSTAR, BMG LabTech). […] All the results were calculated from data obtained in at least three independent experiments performed in triplicate. […]

[4] = test system: PSMA-negative cells (PC-3 and DU145); experiment: Cell viability assay (MTT), summary over PSMA-negative cancer cells; type: cell-based, Human; settings: blue light 458 nm; read-out: GI50 mean over PSMA-negative cancer cells, irradiated
Procedure: as §1, §2

[5] = 8 h in the dark, blue light 458 nm 10 min, then dark up to 72 h, read-out: GI50 DU145 Blue
[6] = DU145, blue light, read-out: GI50
[7] = in the dark, 72 h, read-out: GI50 DU145 Dark

| SMILES | depletion of the ABDA absorbance at 380 nm (1O2 production) [1] | GI50 [2, 5] [µM] | GI50 [2, 6] [µM] | Photosensitizing index (PI) [2] | GI50 ([2]; DU145, dark, read-out: GI50) [µM] | SI (vs MC3T3) DU145 Blue [2] | SI (vs MC3T3) DU145 Dark [2] | SI (vs NIH-3T3) DU145 Dark [2] | GI50 [2, 7] [µM] | GI50 [3] [µM] | GI50 [4] [µM] | SI (vs NIH-3T3) DU145 Blue [2] | consumption of ABDA (1O2 production) [1] |
| --- | --- | --- | --- | --- | --- | --- | --- | --- | --- | --- | --- | --- | --- |
| F[P-](F)(F)(F)(F)F.O=C(O)CC[C@H](NC(=O)N[C@@H](CCCCNC(=O)CCn1cc[n+]2[c]1[Ir-3]13([c]4ccccc4-c4c5ccccc5cc[n+]41)([c]1ccccc1-c1c4ccccc4cc[n+]13)[n+]1ccccc1-2)C(=O)O)C(=O)O [III-h] | fast depletion of the ABDA absorbance at 380 nm | 1.41 | 1.41 | 18.5 | 26.1 | 5.9 | 2.0 | >3.8 | 26.1 | 0.31 | 1.6 |  |  |
| F[P-](F)(F)(F)(F)F.O=C(O)CC[C@H](NC(=O)N[C@@H](CCCCNC(=O)CCn1cc[n+]2[c]1[Ir-3]13([c]4cccc5ccc6ccc[n+]1c6c45)([c]1cccc4ccc5ccc[n+]3c5c14)[n+]1ccccc1-2)C(=O)O)C(=O)O [III-i] |  | 8.2 | 8.16 | 5.6 | 45.3 | 5.0 |  | >2.2 | 45.3 |  |  | 6.8 |  |
| F[P-](F)(F)(F)(F)F.O=C(O)CC[C@H](NC(=O)N[C@@H](CCCCNC(=O)CCn1cc[n+]2[c]1[Ir-3]13([c]4c(sc5ccccc45)-c4cccc[n+]41)([c]1c(sc4ccccc14)-c1cccc[n+]13)[n+]1ccccc1-2)C(=O)O)C(=O)O [III-j] | fast depletion of the ABDA absorbance at 380 nm | 1.4 | 1.35 | 151.9 | 205 | 9.3 | >1.2 |  | 205 |  |  | 8.0 | fast complete consumption of ABDA |
| F[P-](F)(F)(F)(F)F.O=C(O)CC[C@H](NC(=O)N[C@@H](CCCCNC(=O)CCn1cc[n+]2[c]1[Ir-3]13([c]4ccccc4-c4sc5ccccc5[n+]41)([c]1ccccc1-c1sc4ccccc4[n+]13)[n+]1ccccc1-2)C(=O)O)C(=O)O [III-k] |  | 2.2 | 2.18 | 7.5 | 16.3 | 15.5 |  | >6.1 | 16.3 | 0.31 | 1.6 | 13.8 |  |
| F[P-](F)(F)(F)(F)F.O=C(NCCCn1cc[n+]2[c]1[Ir-3]13([c]4c(sc5ccccc45)-c4cccc[n+]41)([c]1c(sc4ccccc14)-c1cccc[n+]13)[n+]1ccccc1-2)[c-]1cccc1.[Fe+2].c1cc[cH-]c1 [IV-j] | fast depletion of the ABDA absorbance at 380 nm |  |  |  |  |  |  |  |  |  |  |  | fast complete consumption of ABDA |
